As usually defined, the IC50 is the midpoint of a concentration-inhibition curve. Low values mean inhibition by little substance, high ones a need for much substance.

In the experiment the target is Apoptosis regulator Bcl-2 (Homo sapiens, UniProt P10415). Nature of the experiment: Inhibition of BCL-2 (unknown origin) using FITC-Ahx-GQVGRQLAIIGDDINR-CONH2 as substrate incubated for 4 hrs by fluorescence polarization competition assay. (In fluorescence polarisation assays a small probe gives low polarisation when free and higher when bound to something large.)
Apoptosis regulator Bcl-2, sequence (P10415 whole entry): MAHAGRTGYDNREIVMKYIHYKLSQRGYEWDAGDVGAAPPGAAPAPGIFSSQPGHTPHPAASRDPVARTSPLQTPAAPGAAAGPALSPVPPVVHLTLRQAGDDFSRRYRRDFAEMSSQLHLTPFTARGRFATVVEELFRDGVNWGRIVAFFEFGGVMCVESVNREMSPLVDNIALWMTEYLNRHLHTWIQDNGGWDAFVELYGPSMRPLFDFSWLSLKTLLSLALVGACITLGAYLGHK
For `COc1cc(C(=O)NCCNc2ccc(S(=O)(=O)NC(=O)c3ccc(N4CCN(CC5=C(c6ccc(Cl)cc6)CC(C)(C)CC5)CC4)cc3Oc3cnc4[nH]ccc4c3)cc2[N+](=O)[O-])ccc1NC(=O)[C@@H]1N[C@@H](CC(C)(C)C)[C@](C#N)(c2ccc(Cl)cc2F)[C@H]1c1cccc(Cl)c1F`, the IC50 was less than 20 nM.

For the compound `CC1(C)CCC(CN2CCN(c3ccc(C(=O)NS(=O)(=O)c4ccc(NCCNC(=O)COc5cccc6c5C(=O)N(C5CCC(=O)NC5=O)C6=O)c([N+](=O)[O-])c4)c(Oc4cnc5[nH]ccc5c4)c3)CC2)=C(c2ccc(Cl)cc2)C1` (stereo not given), the IC50 is less than 20 nM.

For the compound `CC1(C)CCC(CN2CCN(c3ccc(C(=O)NS(=O)(=O)c4ccc(NCCOCCOCCNC(=O)CCNC(=O)COc5cccc6c5C(=O)N(C5CCC(=O)NC5=O)C6=O)c([N+](=O)[O-])c4)c(Oc4cnc5[nH]ccc5c4)c3)CC2)=C(c2ccc(Cl)cc2)C1` (stereo not given), the IC50 is less than 20 nM.

As for `CC1(C)CCC(CN2CCN(c3ccc(C(=O)NS(=O)(=O)c4ccc(NCCOCCOCCNC(=O)COc5cccc6c5C(=O)N(C5CCC(=O)NC5=O)C6=O)c([N+](=O)[O-])c4)c(Oc4cnc5[nH]ccc5c4)c3)CC2)=C(c2ccc(Cl)cc2)C1` (stereo not given), the IC50 was less than 20 nM.

The compound `COc1cc(C(=O)NCCOCCOCCNc2ccc(S(=O)(=O)NC(=O)c3ccc(N4CCN(CC5=C(c6ccc(Cl)cc6)CC(C)(C)CC5)CC4)cc3Oc3cnc4[nH]ccc4c3)cc2[N+](=O)[O-])ccc1NC(=O)[C@@H]1N[C@@H](CC(C)(C)C)[C@](C#N)(c2ccc(Cl)cc2F)[C@H]1c1cccc(Cl)c1F` displayed an IC50 of less than 20 nM.

For the origin of these results see ChEMBL document CHEMBL5257141, “PROTAC: Harnessing Targeted Chimeras for Selective BCL-2 Degradation in Cancer Treatment” (ACS Med Chem Lett, 2023).
